# Values of other authors in US20070208072A1, “Maleate salt of tegaserod and crystalline forms thereof” (priority 2006, published 2007).
# Settings: white to off-white crystalline powder
smiles,measurement,setting,value
CCCCCNC(=N)N/N=C/c1c[nH]c2ccc(OC)cc12.O=C(O)/C=C\C(=O)O [Tegaserod maleate],solubility in ethanol,ethanol,slightly soluble
same,solubility in water,water,very slightly soluble
